ChEMBL document CHEMBL6153110, “Peptide Double-Stapling and Arginine N-Glycosylation Triggered the Development of Therapeutic Antimicrobial Peptides Capable of Killing Drug-Resistant Bacteria in Mice” (J Med Chem, 2025)
Values after ≈ are worked out from the molar mass of the structure shown. Positions of bridges follow the written chain, without caps; N, C: chain ends. Non-standard residues stand in square brackets, D forms with d. Residues, ends and D or L forms follow the SMILES beside them. R8 = C=CCCCCCC[C@@](C)(N)C(=O)O; S5 = C=CCCC[C@](C)(N)C(=O)O

Key:
Type in all cases: functional
Staphylococcus aureus = experiment: Antimicrobial activity against methicillin-resistant Staphylococcus aureus ATCC 43300 assessed as growth inhibition measured after 8 hrs incubation by standard broth dilution assay
Pseudomonas aeruginosa = experiment: Antimicrobial activity against Pseudomonas aeruginosa ATCC 27853 assessed as growth inhibition measured after 8 hrs incubation by standard broth dilution assay
Streptococcus pneumoniae = experiment: Antimicrobial activity against Streptococcus pneumoniae ATCC 49619 assessed as growth inhibition measured after 8 hrs incubation by standard broth dilution assay
Klebsiella pneumoniae = experiment: Antimicrobial activity against Klebsiella pneumoniae ATCC 13883 assessed as growth inhibition measured after 8 hrs incubation by standard broth dilution assay

| SMILES | MIC (Staphylococcus aureus) [µg/mL] | MIC (Pseudomonas aeruginosa) [µg/mL] | MIC (Streptococcus pneumoniae) [µg/mL] | MIC (Klebsiella pneumoniae) [µg/mL] |
| --- | --- | --- | --- | --- |
| CC(=O)N[C@@H](CC(C)C)C(=O)N[C@@H](CCCCN)C(=O)N[C@@H](CCCNC(=N)N)C(=O)N[C@]1(C)CCCCCC/C=C\CCC[C@@](C)(C(=O)N[C@@H](CC(C)C)C(=O)N[C@@H](CCCCN)C(=O)N[C@@H](CCCNC(=N)N)C(=O)N[C@@H](Cc2ccc(O)cc2)C(=O)N[C@@H](Cc2c[nH]c3ccccc23)C(=O)N[C@@H](CCCNC(=N)N)C(=O)N[C@@H](CCC(N)=O)C(=O)N[C@@H](CC(C)C)C(=O)N[C@@H](CCCCN)C(=O)N[C@@H](CCCCN)C(=O)N2CCC[C@H]2C(=O)N[C@H](C(=O)N[C@@H](CCCNC(=N)N)C(N)=O)C(C)C)NC(=O)[C@H](CCCCN)NC(=O)[C@H](Cc2ccccc2)NC(=O)[C@H](C(C)C)NC(=O)[C@H](CCCNC(=N)N)NC(=O)[C@H](CCCCN)NC(=O)[C@H](Cc2c[nH]c3ccccc23)NC1=O (Ac-LKR[R8]WKRVFK[S5]LKRYWRQLKKPVR-NH2; staple (Z) 4-11) | 4.9 (≈ 1.46 µM) | 5 (≈ 1.49 µM) | 37.7 (≈ 11.3 µM) | 38 (≈ 11.4 µM) |
| CC(=O)N[C@@H](CC(C)C)C(=O)N[C@@H](CCCCN)C(=O)N[C@@H](CCCNC(=N)N)C(=O)N[C@H](C(=O)N[C@@H](Cc1c[nH]c2ccccc12)C(=O)N[C@@H](CCCCN)C(=O)N[C@@H](CCCNC(=N)N)C(=O)N[C@H](C(=O)N[C@@]1(C)CCC/C=C\CCC[C@@](C)(C(=O)N[C@@H](CCCNC(=N)N)C(=O)N[C@@H](Cc2ccc(O)cc2)C(=O)N[C@@H](Cc2c[nH]c3ccccc23)C(=O)N[C@@H](CCCNC(=N)N)C(=O)N[C@@H](CCC(N)=O)C(=O)N[C@@H](CC(C)C)C(=O)N[C@@H](CCCCN)C(=O)N[C@@H](CCCCN)C(=O)N2CCC[C@H]2C(=O)N[C@H](C(=O)N[C@@H](CCCNC(=N)N)C(N)=O)C(C)C)NC(=O)[C@H](CC(C)C)NC(=O)[C@H](CC(C)C)NC(=O)[C@H](CCCCN)NC1=O)C(C)C)C(C)C (Ac-LKRVWKRV[S5]KLL[S5]RYWRQLKKPVR-NH2; staple (Z) 9-13) | 2.5 (≈ 0.771 µM) | 5 (≈ 1.54 µM) | 9.6 (≈ 2.96 µM) | 38 (≈ 11.7 µM) |
| CC(=O)N[C@@H](CC(C)C)C(=O)N[C@@H](CCCCN)C(=O)N[C@@H](CCCNC(=N)N)C(=O)N[C@H](C(=O)N[C@@H](Cc1c[nH]c2ccccc12)C(=O)N[C@@H](CCCCN)C(=O)N[C@@H](CCCNC(=N)N)C(=O)N[C@]1(C)CCCCCC/C=C\CCC[C@@](C)(C(=O)N[C@@H](Cc2c[nH]c3ccccc23)C(=O)N[C@@H](CCCNC(=N)N)C(=O)N[C@@H](CCC(N)=O)C(=O)N[C@@H](CC(C)C)C(=O)N[C@@H](CCCCN)C(=O)N[C@@H](CCCCN)C(=O)N2CCC[C@H]2C(=O)N[C@H](C(=O)N[C@@H](CCCNC(=N)N)C(N)=O)C(C)C)NC(=O)[C@H](CCCNC(=N)N)NC(=O)[C@H](CCCCN)NC(=O)[C@H](CC(C)C)NC(=O)[C@H](CC(C)C)NC(=O)[C@H](CCCCN)NC(=O)[C@H](Cc2ccccc2)NC1=O)C(C)C (Ac-LKRVWKR[R8]FKLLKR[S5]WRQLKKPVR-NH2; staple (Z) 8-15) | 9.7 (≈ 2.94 µM) | 5 (≈ 1.52 µM) | 19 (≈ 5.76 µM) | 38 (≈ 11.5 µM) |
| CC(=O)N[C@]1(C)CCCCCC/C=C\CCC[C@@](C)(C(=O)N[C@@H](Cc2ccccc2)C(=O)N[C@@H](CCCCN)C(=O)N[C@@H](CC(C)C)C(=O)N[C@@H](CC(C)C)C(=O)N[C@@H](CCCCN)C(=O)N[C@@H](CCCNC(=N)N)C(=O)N[C@@H](Cc2ccc(O)cc2)C(=O)N[C@@H](Cc2c[nH]c3ccccc23)C(=O)N[C@@H](CCCNC(=N)N)C(=O)N[C@@H](CCC(N)=O)C(=O)N[C@@H](CC(C)C)C(=O)N[C@@H](CCCCN)C(=O)N[C@@H](CCCCN)C(=O)N2CCC[C@H]2C(=O)N[C@H](C(=O)N[C@@H](CCCNC(=N)N)C(N)=O)C(C)C)NC(=O)[C@H](CCCNC(=N)N)NC(=O)[C@H](CCCCN)NC(=O)[C@H](Cc2c[nH]c3ccccc23)NC(=O)[C@H](C(C)C)NC(=O)[C@H](CCCNC(=N)N)NC(=O)[C@H](CCCCN)NC1=O (Ac-[R8]KRVWKR[S5]FKLLKRYWRQLKKPVR-NH2; staple (Z) 1-8) | 4.9 (≈ 1.46 µM) | 9.8 (≈ 2.93 µM) | 9.6 (≈ 2.87 µM) | 38 (≈ 11.4 µM) |
| CC(=O)N[C@@H](CC(C)C)C(=O)N[C@@H](CCCCN)C(=O)N[C@@H](CCCNC(=N)N)C(=O)N[C@H](C(=O)N[C@@H](Cc1c[nH]c2ccccc12)C(=O)N[C@@H](CCCCN)C(=O)N[C@@H](CCCNC(=N)N)C(=O)N[C@H](C(=O)N[C@@H](Cc1ccccc1)C(=O)N[C@@H](CCCCN)C(=O)N[C@@]1(C)CCC/C=C\CCC[C@@](C)(C(=O)N[C@@H](Cc2c[nH]c3ccccc23)C(=O)N[C@@H](CCCNC(=N)N)C(=O)N[C@@H](CCC(N)=O)C(=O)N[C@@H](CC(C)C)C(=O)N[C@@H](CCCCN)C(=O)N[C@@H](CCCCN)C(=O)N2CCC[C@H]2C(=O)N[C@H](C(=O)N[C@@H](CCCNC(=N)N)C(N)=O)C(C)C)NC(=O)[C@H](CCCNC(=N)N)NC(=O)[C@H](CCCCN)NC(=O)[C@H](CC(C)C)NC1=O)C(C)C)C(C)C (Ac-LKRVWKRVFK[S5]LKR[S5]WRQLKKPVR-NH2; staple (Z) 11-15) | 2.5 (≈ 0.771 µM) | 38.1 (≈ 11.8 µM) | 37.7 (≈ 11.6 µM) | 38 (≈ 11.7 µM) |
| CC(=O)N[C@@H](CC(C)C)C(=O)N[C@]1(C)CCCCCC/C=C\CCC[C@@](C)(C(=O)N[C@@H](CCCCN)C(=O)N[C@@H](CC(C)C)C(=O)N[C@@H](CC(C)C)C(=O)N[C@@H](CCCCN)C(=O)N[C@@H](CCCNC(=N)N)C(=O)N[C@@H](Cc2ccc(O)cc2)C(=O)N[C@@H](Cc2c[nH]c3ccccc23)C(=O)N[C@@H](CCCNC(=N)N)C(=O)N[C@@H](CCC(N)=O)C(=O)N[C@@H](CC(C)C)C(=O)N[C@@H](CCCCN)C(=O)N[C@@H](CCCCN)C(=O)N2CCC[C@H]2C(=O)N[C@H](C(=O)N[C@@H](CCCNC(=N)N)C(N)=O)C(C)C)NC(=O)[C@H](C(C)C)NC(=O)[C@H](CCCNC(=N)N)NC(=O)[C@H](CCCCN)NC(=O)[C@H](Cc2c[nH]c3ccccc23)NC(=O)[C@H](C(C)C)NC(=O)[C@H](CCCNC(=N)N)NC1=O (Ac-L[R8]RVWKRV[S5]KLLKRYWRQLKKPVR-NH2; staple (Z) 2-9) | 9.7 (≈ 2.95 µM) | 9.8 (≈ 2.98 µM) | 37.7 (≈ 11.5 µM) | 38 (≈ 11.6 µM) |
| CC(=O)N[C@@]1(C)CCC/C=C\CCC[C@@](C)(C(=O)N[C@@H](CCCCN)C(=O)N[C@@H](CCCNC(=N)N)C(=O)N[C@H](C(=O)N[C@@H](Cc2ccccc2)C(=O)N[C@@H](CCCCN)C(=O)N[C@@H](CC(C)C)C(=O)N[C@@H](CC(C)C)C(=O)N[C@@H](CCCCN)C(=O)N[C@@H](CCCNC(=N)N)C(=O)N[C@@H](Cc2ccc(O)cc2)C(=O)N[C@@H](Cc2c[nH]c3ccccc23)C(=O)N[C@@H](CCCNC(=N)N)C(=O)N[C@@H](CCC(N)=O)C(=O)N[C@@H](CC(C)C)C(=O)N[C@@H](CCCCN)C(=O)N[C@@H](CCCCN)C(=O)N2CCC[C@H]2C(=O)N[C@H](C(=O)N[C@@H](CCCNC(=N)N)C(N)=O)C(C)C)C(C)C)NC(=O)[C@H](C(C)C)NC(=O)[C@H](CCCNC(=N)N)NC(=O)[C@H](CCCCN)NC1=O (Ac-[S5]KRV[S5]KRVFKLLKRYWRQLKKPVR-NH2; staple (Z) 1-5) | 2.5 (≈ 0.777 µM) | 2.6 (≈ 0.808 µM) | 37.7 (≈ 11.7 µM) | 38 (≈ 11.8 µM) |
| CC(=O)N[C@@H](CC(C)C)C(=O)N[C@@H](CCCCN)C(=O)N[C@@H](CCCNC(=N)N)C(=O)N[C@H](C(=O)N[C@]1(C)CCCCCC/C=C\CCC[C@@](C)(C(=O)N[C@@H](CCCCN)C(=O)N[C@@H](CCCNC(=N)N)C(=O)N[C@@H](Cc2ccc(O)cc2)C(=O)N[C@@H](Cc2c[nH]c3ccccc23)C(=O)N[C@@H](CCCNC(=N)N)C(=O)N[C@@H](CCC(N)=O)C(=O)N[C@@H](CC(C)C)C(=O)N[C@@H](CCCCN)C(=O)N[C@@H](CCCCN)C(=O)N2CCC[C@H]2C(=O)N[C@H](C(=O)N[C@@H](CCCNC(=N)N)C(N)=O)C(C)C)NC(=O)[C@H](CC(C)C)NC(=O)[C@H](CCCCN)NC(=O)[C@H](Cc2ccccc2)NC(=O)[C@H](C(C)C)NC(=O)[C@H](CCCNC(=N)N)NC(=O)[C@H](CCCCN)NC1=O)C(C)C (Ac-LKRV[R8]KRVFKL[S5]KRYWRQLKKPVR-NH2; staple (Z) 5-12) | 9.7 (≈ 2.98 µM) | 19.3 (≈ 5.92 µM) | 9.6 (≈ 2.94 µM) | 38 (≈ 11.7 µM) |
| CC(=O)N[C@@H](CC(C)C)C(=O)N[C@@H](CCCCN)C(=O)N[C@@H](CCCNC(=N)N)C(=O)N[C@H](C(=O)N[C@@]1(C)CCC/C=C\CCC[C@@](C)(C(=O)N[C@@H](CCCCN)C(=O)N[C@@H](CC(C)C)C(=O)N[C@@H](CC(C)C)C(=O)N[C@@H](CCCCN)C(=O)N[C@@H](CCCNC(=N)N)C(=O)N[C@@H](Cc2ccc(O)cc2)C(=O)N[C@@H](Cc2c[nH]c3ccccc23)C(=O)N[C@@H](CCCNC(=N)N)C(=O)N[C@@H](CCC(N)=O)C(=O)N[C@@H](CC(C)C)C(=O)N[C@@H](CCCCN)C(=O)N[C@@H](CCCCN)C(=O)N2CCC[C@H]2C(=O)N[C@H](C(=O)N[C@@H](CCCNC(=N)N)C(N)=O)C(C)C)NC(=O)[C@H](C(C)C)NC(=O)[C@H](CCCNC(=N)N)NC(=O)[C@H](CCCCN)NC1=O)C(C)C (Ac-LKRV[S5]KRV[S5]KLLKRYWRQLKKPVR-NH2; staple (Z) 5-9) | 2.5 (≈ 0.785 µM) | 2.6 (≈ 0.817 µM) | 37.7 (≈ 11.8 µM) | 38 (≈ 11.9 µM) |
| CC(=O)N[C@@H](CC(C)C)C(=O)N[C@@H](CCCCN)C(=O)N[C@@H](CCCNC(=N)N)C(=O)N[C@H](C(=O)N[C@@H](Cc1c[nH]c2ccccc12)C(=O)N[C@@H](CCCCN)C(=O)N[C@@H](CCCNC(=N)N)C(=O)N[C@H](C(=O)N[C@@H](Cc1ccccc1)C(=O)N[C@@H](CCCCN)C(=O)N[C@@H](CC(C)C)C(=O)N[C@@H](CC(C)C)C(=O)N[C@@H](CCCCN)C(=O)N[C@@H](CCCNC(=N)N)C(=O)N[C@@]1(C)CCC/C=C\CCC[C@@](C)(C(=O)N[C@@H](CCCCN)C(=O)N[C@@H](CCCCN)C(=O)N2CCC[C@H]2C(=O)N[C@H](C(=O)N[C@@H](CCCNC(=N)N)C(N)=O)C(C)C)NC(=O)[C@H](CCC(N)=O)NC(=O)[C@H](CCCNC(=N)N)NC(=O)[C@H](Cc2c[nH]c3ccccc23)NC1=O)C(C)C)C(C)C (Ac-LKRVWKRVFKLLKR[S5]WRQ[S5]KKPVR-NH2; staple (Z) 15-19) | 19.1 (≈ 5.89 µM) | 9.9 (≈ 3.05 µM) | 37.7 (≈ 11.6 µM) | 38 (≈ 11.7 µM) |
